Laboratory results taken from the NIST ThermoML archive (doi:10.1016/j.jct.2012.03.031).
Several values for one entry are separate records, joined by “and”; a condition that tells them apart may be missing. Identical values can stand only once.

Experiment: molar heat capacity at constant pressure
Conditions: 101.33 kPa

CCCCc1ccc(C(=O)Oc2ccc(C#N)c(F)c2)cc1 [4-cyano-3-fluorophenyl 4-butylbenzoate]
Conditions | molar heat capacity at constant pressure
61.92 K, Crystal 1, Small (less than 1 g) adiabatic calorimetry | 106.31 J/K/mol
63.2 K, Crystal 1, Small (less than 1 g) adiabatic calorimetry | 108.1 J/K/mol
63.41 K, Crystal 1, Small (less than 1 g) adiabatic calorimetry | 108.62 J/K/mol
63.57 K, Crystal 2, Small (less than 1 g) adiabatic calorimetry | 113.15 J/K/mol
64.91 K, Crystal 1, Small (less than 1 g) adiabatic calorimetry | 110.74 J/K/mol
65.24 K, Crystal 2, Small (less than 1 g) adiabatic calorimetry | 115.68 J/K/mol
65.3 K, Crystal 1, Small (less than 1 g) adiabatic calorimetry | 111.15 J/K/mol
66.41 K, Crystal 1, Small (less than 1 g) adiabatic calorimetry | 112.9 J/K/mol
66.93 K, Crystal 2, Small (less than 1 g) adiabatic calorimetry | 118.1 J/K/mol
67.38 K, Crystal 1, Small (less than 1 g) adiabatic calorimetry | 114.12 J/K/mol
67.91 K, Crystal 1, Small (less than 1 g) adiabatic calorimetry | 115.02 J/K/mol
68.62 K, Crystal 2, Small (less than 1 g) adiabatic calorimetry | 120.58 J/K/mol
69.41 K, Crystal 1, Small (less than 1 g) adiabatic calorimetry | 117.19 J/K/mol
69.46 K, Crystal 1, Small (less than 1 g) adiabatic calorimetry | 117 J/K/mol
70 K, Crystal 1, Vacuum adiabatic calorimetry | 117.76 J/K/mol
70 K, Crystal 2, Vacuum adiabatic calorimetry | 122.57 J/K/mol
70.32 K, Crystal 2, Small (less than 1 g) adiabatic calorimetry | 123.03 J/K/mol
70.92 K, Crystal 1, Small (less than 1 g) adiabatic calorimetry | 119.27 J/K/mol
71.53 K, Crystal 1, Small (less than 1 g) adiabatic calorimetry | 119.9 J/K/mol
72.11 K, Crystal 2, Small (less than 1 g) adiabatic calorimetry | 125.5 J/K/mol
72.44 K, Crystal 1, Small (less than 1 g) adiabatic calorimetry | 121.32 J/K/mol
73.59 K, Crystal 1, Small (less than 1 g) adiabatic calorimetry | 122.75 J/K/mol
73.96 K, Crystal 1, Small (less than 1 g) adiabatic calorimetry | 123.47 J/K/mol
74.05 K, Crystal 2, Small (less than 1 g) adiabatic calorimetry | 128.27 J/K/mol
75.49 K, Crystal 1, Small (less than 1 g) adiabatic calorimetry | 125.48 J/K/mol
75.66 K, Crystal 1, Small (less than 1 g) adiabatic calorimetry | 125.55 J/K/mol
76.08 K, Crystal 2, Small (less than 1 g) adiabatic calorimetry | 131.11 J/K/mol
77.02 K, Crystal 1, Small (less than 1 g) adiabatic calorimetry | 127.52 J/K/mol
77.72 K, Crystal 1, Small (less than 1 g) adiabatic calorimetry | 128.25 J/K/mol
78.1 K, Crystal 2, Small (less than 1 g) adiabatic calorimetry | 133.74 J/K/mol
78.56 K, Crystal 1, Small (less than 1 g) adiabatic calorimetry | 129.55 J/K/mol
79.79 K, Crystal 1, Small (less than 1 g) adiabatic calorimetry | 130.94 J/K/mol
80 K, Crystal 1, Vacuum adiabatic calorimetry | 131.22 J/K/mol
80 K, Crystal 2, Vacuum adiabatic calorimetry | 136.34 J/K/mol
80.1 K, Crystal 1, Small (less than 1 g) adiabatic calorimetry | 131.58 J/K/mol
80.14 K, Crystal 2, Small (less than 1 g) adiabatic calorimetry | 136.53 J/K/mol
81.65 K, Crystal 1, Small (less than 1 g) adiabatic calorimetry | 133.56 J/K/mol
81.86 K, Crystal 1, Small (less than 1 g) adiabatic calorimetry | 133.65 J/K/mol
82.17 K, Crystal 2, Small (less than 1 g) adiabatic calorimetry | 139.24 J/K/mol
83.21 K, Crystal 1, Small (less than 1 g) adiabatic calorimetry | 135.55 J/K/mol
83.93 K, Crystal 1, Small (less than 1 g) adiabatic calorimetry | 136.28 J/K/mol
84.22 K, Crystal 2, Small (less than 1 g) adiabatic calorimetry | 141.95 J/K/mol
84.77 K, Crystal 1, Small (less than 1 g) adiabatic calorimetry | 137.59 J/K/mol
86 K, Crystal 1, Small (less than 1 g) adiabatic calorimetry | 138.9 J/K/mol
86.27 K, Crystal 2, Small (less than 1 g) adiabatic calorimetry | 144.59 J/K/mol
86.34 K, Crystal 1, Small (less than 1 g) adiabatic calorimetry | 139.51 J/K/mol
87.92 K, Crystal 1, Small (less than 1 g) adiabatic calorimetry | 141.49 J/K/mol
88.19 K, Crystal 1, Small (less than 1 g) adiabatic calorimetry | 141.58 J/K/mol
88.32 K, Crystal 2, Small (less than 1 g) adiabatic calorimetry | 147.21 J/K/mol
89.5 K, Crystal 1, Small (less than 1 g) adiabatic calorimetry | 143.41 J/K/mol
90 K, Crystal 1, Vacuum adiabatic calorimetry | 143.78 J/K/mol
90 K, Crystal 2, Vacuum adiabatic calorimetry | 149.41 J/K/mol
90.38 K, Crystal 2, Small (less than 1 g) adiabatic calorimetry | 149.91 J/K/mol
90.49 K, Crystal 1, Small (less than 1 g) adiabatic calorimetry | 144.38 J/K/mol
91.1 K, Crystal 1, Small (less than 1 g) adiabatic calorimetry | 145.38 J/K/mol
92.46 K, Crystal 2, Small (less than 1 g) adiabatic calorimetry | 152.54 J/K/mol
92.69 K, Crystal 1, Small (less than 1 g) adiabatic calorimetry | 147.26 J/K/mol
92.79 K, Crystal 1, Small (less than 1 g) adiabatic calorimetry | 147.14 J/K/mol
94.3 K, Crystal 1, Small (less than 1 g) adiabatic calorimetry | 149.22 J/K/mol
94.53 K, Crystal 2, Small (less than 1 g) adiabatic calorimetry | 155.21 J/K/mol
95.09 K, Crystal 1, Small (less than 1 g) adiabatic calorimetry | 149.9 J/K/mol
95.91 K, Crystal 1, Small (less than 1 g) adiabatic calorimetry | 151.12 J/K/mol
96.62 K, Crystal 2, Small (less than 1 g) adiabatic calorimetry | 157.81 J/K/mol
97.38 K, Crystal 1, Small (less than 1 g) adiabatic calorimetry | 152.62 J/K/mol
97.53 K, Crystal 1, Small (less than 1 g) adiabatic calorimetry | 153.02 J/K/mol
98.72 K, Crystal 2, Small (less than 1 g) adiabatic calorimetry | 160.47 J/K/mol
99.17 K, Crystal 1, Small (less than 1 g) adiabatic calorimetry | 154.93 J/K/mol
99.68 K, Crystal 1, Small (less than 1 g) adiabatic calorimetry | 155.3 J/K/mol
100 K, Crystal 1, Vacuum adiabatic calorimetry | 155.66 J/K/mol
100 K, Crystal 2, Vacuum adiabatic calorimetry | 162.05 J/K/mol
100.8 K, Crystal 1, Small (less than 1 g) adiabatic calorimetry | 156.84 J/K/mol
100.83 K, Crystal 2, Small (less than 1 g) adiabatic calorimetry | 163.07 J/K/mol
101.98 K, Crystal 1, Small (less than 1 g) adiabatic calorimetry | 157.93 J/K/mol
102.45 K, Crystal 1, Small (less than 1 g) adiabatic calorimetry | 158.74 J/K/mol
102.94 K, Crystal 2, Small (less than 1 g) adiabatic calorimetry | 165.76 J/K/mol
104.1 K, Crystal 1, Small (less than 1 g) adiabatic calorimetry | 160.69 J/K/mol
104.29 K, Crystal 1, Small (less than 1 g) adiabatic calorimetry | 160.64 J/K/mol
105.07 K, Crystal 2, Small (less than 1 g) adiabatic calorimetry | 168.36 J/K/mol
105.76 K, Crystal 1, Small (less than 1 g) adiabatic calorimetry | 162.57 J/K/mol
106.6 K, Crystal 1, Small (less than 1 g) adiabatic calorimetry | 163.27 J/K/mol
107.21 K, Crystal 2, Small (less than 1 g) adiabatic calorimetry | 170.99 J/K/mol
107.43 K, Crystal 1, Small (less than 1 g) adiabatic calorimetry | 164.48 J/K/mol
108.92 K, Crystal 1, Small (less than 1 g) adiabatic calorimetry | 165.88 J/K/mol
109.11 K, Crystal 1, Small (less than 1 g) adiabatic calorimetry | 166.36 J/K/mol
109.36 K, Crystal 2, Small (less than 1 g) adiabatic calorimetry | 173.6 J/K/mol
110 K, Crystal 1, Vacuum adiabatic calorimetry | 167.09 J/K/mol
110 K, Crystal 2, Vacuum adiabatic calorimetry | 174.41 J/K/mol
110.8 K, Crystal 1, Small (less than 1 g) adiabatic calorimetry | 168.33 J/K/mol
111.24 K, Crystal 1, Small (less than 1 g) adiabatic calorimetry | 168.49 J/K/mol
111.51 K, Crystal 2, Small (less than 1 g) adiabatic calorimetry | 176.31 J/K/mol
112.5 K, Crystal 1, Small (less than 1 g) adiabatic calorimetry | 170.17 J/K/mol
113.57 K, Crystal 1, Small (less than 1 g) adiabatic calorimetry | 171.15 J/K/mol
113.68 K, Crystal 2, Small (less than 1 g) adiabatic calorimetry | 178.98 J/K/mol
114.2 K, Crystal 1, Small (less than 1 g) adiabatic calorimetry | 172.16 J/K/mol
115.87 K, Crystal 2, Small (less than 1 g) adiabatic calorimetry | 181.77 J/K/mol
115.91 K, Crystal 1, Small (less than 1 g) adiabatic calorimetry | 173.74 J/K/mol and 174.07 J/K/mol
117.64 K, Crystal 1, Small (less than 1 g) adiabatic calorimetry | 175.95 J/K/mol
118.06 K, Crystal 2, Small (less than 1 g) adiabatic calorimetry | 184.44 J/K/mol
118.26 K, Crystal 1, Small (less than 1 g) adiabatic calorimetry | 176.37 J/K/mol
119.36 K, Crystal 1, Small (less than 1 g) adiabatic calorimetry | 177.93 J/K/mol
120 K, Crystal 1, Vacuum adiabatic calorimetry | 178.29 J/K/mol
120 K, Crystal 2, Vacuum adiabatic calorimetry | 186.87 J/K/mol
120.27 K, Crystal 2, Small (less than 1 g) adiabatic calorimetry | 187.2 J/K/mol
120.61 K, Crystal 1, Small (less than 1 g) adiabatic calorimetry | 178.97 J/K/mol
121.1 K, Crystal 1, Small (less than 1 g) adiabatic calorimetry | 179.82 J/K/mol
122.48 K, Crystal 2, Small (less than 1 g) adiabatic calorimetry | 189.96 J/K/mol
122.85 K, Crystal 1, Small (less than 1 g) adiabatic calorimetry | 181.85 J/K/mol
122.98 K, Crystal 1, Small (less than 1 g) adiabatic calorimetry | 181.61 J/K/mol
124.61 K, Crystal 1, Small (less than 1 g) adiabatic calorimetry | 182.88 J/K/mol
124.71 K, Crystal 2, Small (less than 1 g) adiabatic calorimetry | 192.76 J/K/mol
125.35 K, Crystal 1, Small (less than 1 g) adiabatic calorimetry | 184.23 J/K/mol
126.37 K, Crystal 1, Small (less than 1 g) adiabatic calorimetry | 185.75 J/K/mol
126.95 K, Crystal 2, Small (less than 1 g) adiabatic calorimetry | 195.55 J/K/mol
127.73 K, Crystal 1, Small (less than 1 g) adiabatic calorimetry | 186.92 J/K/mol
128.14 K, Crystal 1, Small (less than 1 g) adiabatic calorimetry | 187.6 J/K/mol
129.2 K, Crystal 2, Small (less than 1 g) adiabatic calorimetry | 198.34 J/K/mol
129.93 K, Crystal 1, Small (less than 1 g) adiabatic calorimetry | 189.59 J/K/mol
130 K, Crystal 1, Vacuum adiabatic calorimetry | 189.39 J/K/mol
130 K, Crystal 2, Vacuum adiabatic calorimetry | 199.38 J/K/mol
130.12 K, Crystal 1, Small (less than 1 g) adiabatic calorimetry | 189.53 J/K/mol
131.47 K, Crystal 2, Small (less than 1 g) adiabatic calorimetry | 201.3 J/K/mol
131.72 K, Crystal 1, Small (less than 1 g) adiabatic calorimetry | 191.62 J/K/mol
132.53 K, Crystal 1, Small (less than 1 g) adiabatic calorimetry | 192.14 J/K/mol
133.51 K, Crystal 1, Small (less than 1 g) adiabatic calorimetry | 193.32 J/K/mol
133.74 K, Crystal 2, Small (less than 1 g) adiabatic calorimetry | 204.25 J/K/mol
134.94 K, Crystal 1, Small (less than 1 g) adiabatic calorimetry | 194.79 J/K/mol
135.4 K, Crystal 1, Small (less than 1 g) adiabatic calorimetry | 195.42 J/K/mol
136.03 K, Crystal 2, Small (less than 1 g) adiabatic calorimetry | 207.21 J/K/mol
137.37 K, Crystal 1, Small (less than 1 g) adiabatic calorimetry | 197.39 J/K/mol and 197.54 J/K/mol
138.33 K, Crystal 2, Small (less than 1 g) adiabatic calorimetry | 210.2 J/K/mol
139.32 K, Crystal 1, Small (less than 1 g) adiabatic calorimetry | 199.71 J/K/mol
139.8 K, Crystal 1, Small (less than 1 g) adiabatic calorimetry | 200.05 J/K/mol
140 K, Crystal 1, Vacuum adiabatic calorimetry | 200.27 J/K/mol
140 K, Crystal 2, Vacuum adiabatic calorimetry | 212.43 J/K/mol
140.64 K, Crystal 2, Small (less than 1 g) adiabatic calorimetry | 213.3 J/K/mol
